Test results reported in patent publication US20250057928A1, “VACCINE COMPOSITION FOR INDUCING ANTI-IL-23 ANTIBODY” (OSAKA UNIVERSITY, priority 2021, published 2025).
Where no end group is shown, it is not given here.

Tests used:
hairless rats = assay: Psoriasis model, 2% imiquimod (IMQ) applied to auricle of hairless rats; type: in vivo, rat; details: 1 mg/body 3 times
Procedure: AJP001 conjugated peptide (SEQ ID NO: 2) was dissolved in physiological saline and intradermally administered to hairless rats (female, 6-week-old, N=6) at 1 mg/body 3 times at two-week intervals. From 6 weeks after the initial administration, 2% imiquimod (IMQ) was intermittently applied to the auricle 4 times in total at 1-day intervals to create a psoriasis model. A 2% IMQ application group was provided as a control group. The drug efficacy was evaluated by measuring the thickness of the auricle with a thickness gauge (Mitutoyo Corporation) from the first day of IMQ application to the eighth day. Furthermore, on the 8th day, histopathological evaluation of the auricular tissue was performed. Specifically, the collected auricle was fixed with 10% neutral formalin, and then a specimen was prepared according to a conventional method and stained with HE. HE-stained specimens were observed under a microscope, and inflammatory cell infiltration, edema, and thickness were scored in 4 stages (0: normal, 1: mild, 2: intermediate, 3: severe) and the total score was calculated. Furthermore, the antibody titer (GMT) of the serum at the time point of 6 weeks was measured by the ELISA method (same method as in Example 1. Anti-Rat IgG (GE Healthcare) was used as the secondary antibody). […]

BALB/c mice = assay: rmIL-23-induced mouse auricle inflammation model; type: in vivo
Procedure: AJP001 conjugated peptide (SEQ ID NO: 2) was dissolved in physiological saline and intradermally administered to BALB/c mice (female, 6-week-old, N=8) at 1 mg/body 3 times at two-week intervals. At the time point of 6 weeks after the initial administration, rmIL-23 was administered intradermally to the ear to induce inflammation. With the first administration as Day 0, rmIL-23 was administered 4 times in total on Days 2, 4, and 7. As a control group, an rmIL-23 group without administration of peptide was provided. Auricular thickness was measured using a thickness gauge on each day of administration of rmIL-23 and on Day 9. In order to measure the mRNA expression of IL-17A, IL-22, IL-1β, LCN-2, and CXCL-2 in the auricle, the auricle was collected on the third day of rmIL-23 administration under the same conditions. For mRNA evaluation, a normal group without administration of rmIL-23 was set. […] Using TaqMan Gene Expression Assays (S18: Mm02601777_g1; CXCL-2: Mm00436450_m1; IL-17A: Mm00439618_m1; IL-22: Mm01226722_m1; IL-1β: Mm00434228_m1; LCN-2: Mm01324470_m1), Ct value was measured using Applied Biosystems 7900HT Fast Real Time PCR System. The mRNA expression level was calculated by the ΔΔCt method and evaluated as a relative value to the normal group. […]

rmIL-23 = assay: Binding of monkey antiserum to rmIL-23, ELISA; set-up: species or system mouse; details: monkey antiserum 6 weeks after the initial administration; second statement of b202, FIG. 7(b) covers rhIL-23 and rmIL-23
Procedure: FIG. 7(a) is a graph showing the antibody titer (GMT) of serum collected over time from Macaca fascicularis administered with AJP001 conjugated peptide (SEQ ID NO: 6). FIG. 7(b) is a graph showing the binding ability to rhIL-23 and rmIL-23 of serum collected from the Macaca fascicularis administered with AJP001 conjugated peptide (SEQ ID NO: 6) at 6 weeks after the first administration. FIG. 7(c) is a graph showing the evaluation of neutralization activity of IgG derived from Macaca fascicularis administered with AJP001 conjugated peptide (SEQ ID NO: 6). FIG. 7(d) is a graph showing the results of epitope mapping of anti-IL-23 antibody induced by AJP001 conjugated peptide (SEQ ID NO: 6).
AJP001 conjugated peptide (SEQ ID NO: 6) was dissolved in physiological saline and subcutaneously administered to Macaca fascicularis (female, […], N=4) at 5 mg/body 3 times at two-week intervals. Blood was collected every two weeks from the first day of administration until week 16, and the antibody titer (GMT) and binding to IL-23 of the serum at each time point were measured by the ELISA method (same method as in Example 1; the secondary antibody used was Anti-Monkey IgG (Abcam)). In FIG. 7, “*” means P<0.05.

| Substance | increase in auricular thickness (hairless rats; 2% IMQ 4 times from week 6, day 1 to 8) | inflammatory changes of tissue (auricle, HE score) (hairless rats; 2% IMQ, day 8) | mRNA expression of IL-17A, IL-22, IL-1β, LCN-2, and CXCL-2 in auricle (BALB/c mice; 1 mg/body 3 times, third day of rmIL-23 administration) | increase in auricular thickness (BALB/c mice; 1 mg/body intradermal 3 times, rmIL-23 intradermal to ear from week 6) | binding to rmIL-23 (rmIL-23) |
| --- | --- | --- | --- | --- | --- |
| SEQ ID NO 2: AJP001-Ahx-B cell epitope peptide conjugate; epitope SSSQQWQR (mouse 152-159) (not fully specified (N-terminus); listed as Mus musculus) | suppressive action | suppressive action | suppressive action | suppressive action | – |
| SEQ ID NO 6: AJP001-Ahx-B cell epitope peptide conjugate; epitope SPSQPWQR (human 151-158) (not fully specified (N-terminus); listed as Homo sapiens) | – | – | – | – | not observed |
